Experimental data taken from ChEMBL document CHEMBL5620419, “Discovery of new Lenalidomide derivatives as potent and selective GSPT1 degraders” (Eur J Med Chem, 2023).

Molecular target: Protein cereblon/Eukaryotic peptide chain release factor GTP-binding subunit ERF3A (Homo sapiens, UniProt P15170+Q96SW2)
Experiment: PROTAC activity at CRBN/GSPT1 in human U-937 cells assessed as degradation of GSPT1 measured after 6 hrs by Western blot analysis
Format: cell-based

Chain of Protein cereblon/Eukaryotic peptide chain release factor GTP-binding subunit ERF3A (Q96SW2 whole entry): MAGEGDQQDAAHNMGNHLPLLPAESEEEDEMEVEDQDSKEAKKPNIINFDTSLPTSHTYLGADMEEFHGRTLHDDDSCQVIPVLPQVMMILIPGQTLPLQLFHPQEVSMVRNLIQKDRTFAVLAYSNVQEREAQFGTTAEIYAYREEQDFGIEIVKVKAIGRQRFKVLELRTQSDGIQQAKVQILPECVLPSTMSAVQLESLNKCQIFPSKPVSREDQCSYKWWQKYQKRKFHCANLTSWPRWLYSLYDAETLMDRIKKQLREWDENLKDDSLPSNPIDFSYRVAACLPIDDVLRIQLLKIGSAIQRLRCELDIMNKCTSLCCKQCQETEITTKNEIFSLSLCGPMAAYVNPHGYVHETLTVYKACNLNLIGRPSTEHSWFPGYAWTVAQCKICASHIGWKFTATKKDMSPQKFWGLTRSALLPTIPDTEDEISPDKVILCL
Chain of Protein cereblon/Eukaryotic peptide chain release factor GTP-binding subunit ERF3A (P15170 whole entry): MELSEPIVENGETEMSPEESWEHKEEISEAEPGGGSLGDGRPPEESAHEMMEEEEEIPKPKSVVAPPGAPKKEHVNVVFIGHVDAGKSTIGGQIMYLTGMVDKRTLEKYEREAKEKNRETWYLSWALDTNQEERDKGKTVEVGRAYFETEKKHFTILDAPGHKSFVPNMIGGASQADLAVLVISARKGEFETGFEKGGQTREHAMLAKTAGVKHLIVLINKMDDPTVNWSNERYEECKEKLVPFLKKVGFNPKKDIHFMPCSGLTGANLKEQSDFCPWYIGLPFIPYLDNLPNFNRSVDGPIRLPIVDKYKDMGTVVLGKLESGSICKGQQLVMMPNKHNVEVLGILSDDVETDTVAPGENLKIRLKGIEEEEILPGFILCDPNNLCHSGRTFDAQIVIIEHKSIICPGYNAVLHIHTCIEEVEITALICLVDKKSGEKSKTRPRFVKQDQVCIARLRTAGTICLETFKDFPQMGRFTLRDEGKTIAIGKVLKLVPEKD

EC50 [nM] | SMILES
> 10000 | Cc1ccc(NC(=O)/C=C/c2ccc3c(c2)C(=O)N(C2CCC(=O)NC2=O)C3)cc1Cl (configuration not stated)
447 | Cc1ccc(NC(=O)CCc2ccc3c(c2)C(=O)N(C2CCC(=O)NC2=O)C3=O)cc1Cl (configuration not stated)
